This is an account of results in the NIST ThermoML archive (doi:10.1016/j.tca.2006.07.010).

Series [1] in a line: molar heat capacity at constant pressure. The note with it: 298 K; 101.33 kPa; Crystal; Small sample (50 mg) DSC.
The conditions of series [2]: Crystal; for mass density: 298 K, 101.33 kPa, Pycnometric method; for Triple point temperature: DTA.
A short description of series [3]: Molar enthalpy of transition or fusion. The note with it: Crystal; DSC.

SMILES strings stand for the structures. Numbers after ± are expanded uncertainties.

What is called mass density is the mass of a sample divided by its volume. Regarding `Cc1ccc2occ(C=O)c(=O)c2c1` [3-formyl-6-methylchromone], in series [1], the “molar heat capacity at constant pressure” value is reported as 178.96 ± 3.6 J/K/mol. Moreover, in series [2], the mass density stood at 1470 ± 10 kg/m3 and the Triple point temperature was determined as 444.45 ± 0.39 K. For the same compound, in series [3], the “Molar enthalpy of transition or fusion” value was determined as 6.41 ± 0.189 kcal/mol.

In the case of `CC(C)c1ccc2occ(C=O)c(=O)c2c1` [3-formyl-6-isopropylchromone], in series [1], the “molar heat capacity at constant pressure” value is listed as 222.5 ± 4.5 J/K/mol. Moreover, in series [2], the mass density is recorded as 1170 ± 10 kg/m3 and the Triple point temperature is reported as 371.47 ± 0.39 K. Moreover, in series [3], the “Molar enthalpy of transition or fusion” value was found to be 5.76 ± 0.198 kcal/mol.

For `O=Cc1coc2ccccc2c1=O` [3-formylchromone], the “molar heat capacity at constant pressure” value in series [1] was determined as 121.04 ± 2.4 J/K/mol. For the same compound, in series [2], the mass density is 1700 ± 10 kg/m3 and the Triple point temperature is 424.89 ± 0.39 K. Also, in series [3], the “Molar enthalpy of transition or fusion” value was 6.06 ± 0.136 kcal/mol.
